From PubChem BioAssay AID256 (DTP/NCI, 2004)
Inconclusive results and toxic doses are left out. Rule for the calls: active = survival T/C of 150% or more; inactive = T/C below 125% in these data.

Test system: CD2F1 mice, L1210 leukemia ip, survival T/C
Test: NCI In Vivo Anticancer Drug Screen. Data for tumor model L1210 Leukemia (intraperitoneal) in CD2F1 (CDF1) mice
Conditions: endpoint: mean survival time, higher = longer survival
Summary of the method: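 Read-out first: treated-group measurement over vehicle-control measurement, expressed as a ratio. Animals bore a transplanted tumor line and were dosed with compound or vehicle.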

[1] = dose: 100.0 mg/kg/injection, schedule: Q01DX009 (ip), vehicle: other
[2] = dose: 200.0 mg/kg/injection, schedule: Q01DX009 (ip), vehicle: other

Measured: T/C

O=C(CC(O)(C(F)(F)F)C(F)(F)F)c1ccc([N+](=O)[O-])cc1
inactive: [1] 97 % of control | [2] 97 % of control | dose: 400.0 mg/kg/injection, schedule: Q01DX009 (ip), vehicle: other 101 % of control

CC1CCC2(CC1=O)C(C)CC(=O)C2C(C)C (stereo unspecified)
inactive: dose: 100.0 mg/kg/injection, schedule: Q04DX003 (ip), vehicle: saline 95 % of control | dose: 200.0 mg/kg/injection, schedule: Q04DX003 (ip), vehicle: saline 98 % of control | dose: 400.0 mg/kg/injection, schedule: Q04DX003 (ip), vehicle: saline 98 % of control

O=C(CCl)Nc1ccc(-c2c(NC(=O)CCl)ncc3ccccc23)cc1
inactive: dose: 18.75 mg/kg/injection, schedule: Q04DX003 (ip), vehicle: other 100 % of control | dose: 37.5 mg/kg/injection, schedule: Q04DX003 (ip), vehicle: other 108 % of control | dose: 75.0 mg/kg/injection, schedule: Q04DX003 (ip), vehicle: other 108 % of control | dose: 150.0 mg/kg/injection, schedule: Q04DX003 (ip), vehicle: other 108 % of control

CCC(=O)c1cc(O)ccc1O
inactive: dose: 50.0 mg/kg/injection, schedule: Q01DX009 (ip), vehicle: other 109 % of control | dose: 100.0 mg/kg/injection, schedule: Q01DX001 (ip), vehicle: saline 101 % of control | [1] 109 % of control | dose: 200.0 mg/kg/injection, schedule: Q01DX001 (ip), vehicle: saline 101 % of control | [2] 108 % of control | dose: 400.0 mg/kg/injection, schedule: Q01DX001 (ip), vehicle: saline 102 % of control
